Data published in patent US7524866B2, “Prevention and treatment of androgen—deprivation induced osteoporosis” (GTx, Inc., priority 2001, dated 2009).

Columns and labels:
[1] = system: men with high-grade prostatic intraepithelial neoplasia (HGPIN); assay: Phase IIa clinical trial: bone turnover markers (serum calcium, alkaline phosphatase) in men treated with Toremifene; type: in vivo, human; settings: 18 men with HGPIN, 60 mg/d Toremifene
Protocol: In a Phase IIa clinical trial to determine whether Toremifene has chemopreventive activity against prostate cancer, 18 men with high-grade prostatic intraepithelial neoplasia (HGPIN) were treated with 60 mg/d of Toremifene for 4 months.

[2] = system: orchidectomized (Orx/Cx) male Sprague-Dawley rats; assay: Distal right femur cancellous pQCT (Example 3); type: in vivo, rat; settings: Toremifene 5 mg/kg/day; for cancellous bone mineral content and density (Orx-induced decrease of 34%): Orx rats, 17-β-Estradiol 0.5 mg/kg/day s.c.; for Total Bone Area / Total Bone Content / Total Bone Density / Trabecular Area / Trabecular Content / Trabecular Density: castrated (Cx) rats, distal right femur pQCT, mean, n=5, 17-β-estradiol 0.5 mg/kg/day s.c.
Protocol: Male Sprague-Dawley rats (Harlan Sprague Dawley) were placed on study at 14-weeks of age. They were randomized and divided into five treatment groups: vehicle only (placebo, or P) after sham operation, vehicle only after orchidectomy (Orx), Toremifene (5 mg/kg/day) after sham-operation, and Toremifene after orchidectomy, and 17-β-estradiol (0.5 mg/kg/day) after orchidectomy. Test articles were delivered subcutaneously by Alzet pumps. Pumps were re-implanted every 30 days until the end of the study. Five to six animals from each group were sacrificed after 60 and 120 days of treatment, and femurs were harvested, stripped of soft tissue and muscle, and stored individually in polypropylene vials at −80° C. until analysis of bone density and mechanical strength testing. Additionally, serum was collected on days 15, 30, 60, 90 and 120, to measure markers of bone metabolism and to perform serum chemistry.
Peripheral Quantitative Computed Tomography (pQCT)
Right femurs were subjected to pQCT analysis using a Stratec XCT-RM with associated software (Stratec Medizintechnik GmbH, Pforzheim, Germany. Software version 5.40 C). Femurs were scanned at two sites, 20% and 50% of the total femoral length measured from the distal femur. The position was verified using scout views, and scan results from two 0.5 mm slices perpendicular to the long axis of the femur shaft were recorded.

[3] = system: orchidectomized (Orx/Cx) male Sprague-Dawley rats; assay: Compression test of the distal right femur (Example 3); type: in vivo, rat; settings: Toremifene 5 mg/kg/day; for mechanical strength parameters of the distal femur (maximum load, stiffness, ultimate strength, elastic modulus): Orx rats, 17-β-Estradiol 0.5 mg/kg/day s.c.; for Elastic Modulus / Energy / Maximum Load / Stiffness / Toughness / Ultimate Strength / CSA (cross sectional area): castrated (Cx) rats, n=5, 17-β-estradiol 0.5 mg/kg/day s.c.; for Elastic Modulus / Energy / Maximum Load / Stiffness / Toughness / Ultimate Strength: distal right femur compression; for CSA (cross sectional area): distal right femur specimen
Protocol: Using a Material Testing System (Model 5501R Instron Corp., Canton, Mass.), two types of mechanical testing were performed on the right femur. The load and extension curves were collected by the machine software (Merlin II, Instron Corp.). All tests were conducted using a 5 kN load cell at a constant loading rate of 6 mm/min. The general applications of the tests were as described in Turner and Burr (Bone, 1993; 14: 595-608) and Ke et al (Bone, 1998; 23, 249-255).
Compression Test of the Distal Femur
A compression test was used to determine the mechanical properties of the distal femur. The distal femur test specimen was obtained by removing a 3 mm segment directly proximal to the distal condyle using a slow speed diamond saw with constant saline irrigation. An electronic caliper was used to measure the average anterior/posterior diameter (a), medial/lateral diameter (b), and height (h) of the bone. The extrinsic parameters, maximal load (Fu), stiffness (S) and energy (W), were obtained from the load and extension curve. The following intrinsic parameters were calculated from the measured values: Cross sectional area (CSA)=(π*a*b)/4; Ultimate Strength (σ)=Fu/CSA; Elastic modulus (E)=S/(CSA/h); Toughness (T)=W/(CSA*h).

[4] = system: Osteocalcin in rat serum; assay: Osteocalcin (OC) in rat serum (Example 4); type: in vivo; settings: Orx rats; for OC (osteocalcin) levels in serum: 10 days; for inhibitory effect on OC levels: 28 days
Protocol: This assay is specific for rat Osteocalcin and both carboxylated and decarboxylated rat Osteocalcin are recognized. A monoclonal antibody against the N-terminal region of Osteocalcin is bound to the polystyrene wells. The assay was performed in duplicates. 100 ul of standards, control and 1 to 20 diluted samples were added to appropriate wells and incubated overnight at 4 C. After washing the strips, 100 ul of Goat polyclonal antibody of high specificity for C-terminus of rat Osteocalcin was added and incubated 60 min at 37 C. After washing, 100 ul of Donkey anti-goat IgG peroxidase conjugated antibody was added and incubated 60 min at 22 C. The wells were washed and a mix of TMB and peroxide solution was added and incubated 30 min at 22 C in the dark. The reaction was stopped, and the absorbance was measured at 450 nm. A standard curve was constructed using 4-parametric logistic curve fit. Sample osteocalcin concentrations were determined by interpolation. Eight month-old male Sprague Dawley rats were either sham-operated (SHAM) or orchidectomized (ORX). Treatment began immediately following surgery. The treatment groups were as described in Table 5.

[5] = system: RatLaps (CTX) in rat serum; assay: CTX (RatLaps) in rat serum (Example 4); type: in vivo; settings: Orx rats
Protocol: The assay was performed in duplicates, each 20 ul of serum as well as standards and control. Briefly, 100 ul of Biotinylated RatLaps Antigen was incubated 30 min in each well, strips were washed and 20 ul of Standard, Control and unknown samples were added to appropriate wells, followed by 100 ul of primary antibody (polyclonal Ab raised against a synthetic peptide EKSQDGGR specific for a part of the C-terminal telopeptide alpha 1 chain of rat type I collagen). After overnight incubation at 4 C., the wells were washed and 100 ul of Peroxidase conjugated Goat anti-Rabbit IgG Antibody was added to each well and incubated 60 min. After washing the strips 100 ul of the Chromogenic Substrate Solution was added to each well, and after 15 min the reaction was stopped and the absorbance was measured at 450 nm. The means of the duplicate absorbance determination were calculated, and a standard curve was constructed using 4-parametric logistic curve fit. Sample RatLaps concentrations were determined by interpolation.
Eight month-old male Sprague Dawley rats were either sham-operated (SHAM) or orchidectomized (ORX). Treatment began immediately following surgery. The treatment groups were as described in Table 5.

[6] = system: orchidectomized rats (ORX); assay: Compression test of the vertebral body (L5) (Example 4); type: in vivo, rat; settings: for Elastic Modulus / Energy / Maximum Load / Stiffness / Toughness / Ultimate Strength: 12 weeks, vertebral body compression, mean
Protocol: Eight month-old male Sprague Dawley rats were either sham-operated (SHAM) or orchidectomized (ORX). Treatment began immediately following surgery. The treatment groups were as described in Table 5. Bone strength was evaluated using a compression test at the vertebral body, a three point bending test at the femoral shaft, a compression test at the distal femur and a cantilever compression test of the femoral neck. Prior to mechanical testing, all samples were thawed in cold saline and carefully cleaned of any remaining adherent soft tissue.

[7] = 28 days, E 0.2 mg/kg/d, 10 mg Tor
[8] = 42 days, E 0.2 mg/kg/d, 10 mg-Tor
[9] = week 12, Toremifene 5 and 10 mg/kg/d, Estradiol 0.2 mg/kg/d

Compound	cancellous bone mineral content and density (Orx-induced decrease of 34%) [2]	Total Bone Area [2] [mm^2]	Total Bone Content [2] [mg/mm]	Total Bone Density [2] [mg/mL]	Trabecular Area [2] [mm^2]	Trabecular Content [2] [mg/mm]	Trabecular Density [2] [mg/mL]	mechanical strength parameters of the distal femur (maximum load, stiffness, ultimate strength, elastic modulus) [3]	Elastic Modulus [3] [MPa]	Energy [3] [mJ]	Maximum Load [3] [N]	Stiffness [3] [N/mm]	Toughness [3] [MJ/m³]	Ultimate Strength [3] [N/mm^2]	CSA (cross sectional area) [3] [mm^2]	OC (osteocalcin) levels in serum ([4]; E 0.2 mg/kg/d, 5 mg-Tor)	CTX levels in serum ([5]; 10 days)	CTX levels in serum [5, 7]	CTX levels in serum [5, 8]	ORX-induced decreases in bone strength, compression test of the vertebral body [6, 9]	also measured
CN(C)CCOc1ccc(/C(=C(/CCCl)c2ccccc2)c2ccccc2)cc1 [Toremifene]	partially prevented this decrease	15.96	10.69	669.74	7.18	1.13	157.56	improved various parameters to a level that was better than Sham-operated animals	579.07	56.96	467.01	3856.71	0.86	22.13	21.30	reversed OC levels to slightly below that of Sham group	Neither E nor Tor had any effect on CTX	reduced the CTX levels	significantly lower CTX levels	did not prevent these changes	alkaline phosphatase, change compared to baseline (mean) ([1]; Day 60, p<0.001): −18.7; alkaline phosphatase, change compared to baseline (mean) ([1]; Day 120, p<0.001): −21.0; serum calcium, reduction from baseline (mean) ([1]; Day 120, p=0.005): −0.12; OC (osteocalcin) levels in serum ([4]; 10 mg-Tor): reversed OC levels to slightly below that of Sham group; inhibitory effect on OC levels ([4]; continued at 42 days, 10 mg-Tor): more pronounced than both 5 mg Tor and E; inhibitory effect on OC levels ([4]; 5 mg-Tor): same as E; effect on CTX ([5]; 5 mg Tor): not uniform and cannot be interpreted; Elastic Modulus ([6]; 5 mg/kg/d): 446.38 MPa; Energy ([6]; 5 mg/kg/d): 36.60 mJ; Maximum Load ([6]; 5 mg/kg/d): 238.19 N; Stiffness ([6]; 5 mg/kg/d): 1391.70 N/mm; Toughness ([6]; 5 mg/kg/d): 0.72 MJ/m^3; Ultimate Strength ([6]; 5 mg/kg/d): 19.08 N/mm^2; Elastic Modulus ([6]; 10 mg/kg/d): 438.64 MPa; Energy ([6]; 10 mg/kg/d): 27.02 mJ; Maximum Load ([6]; 10 mg/kg/d): 206.48 N; Stiffness ([6]; 10 mg/kg/d): 1255.47 N/mm; Toughness ([6]; 10 mg/kg/d): 0.59 MJ/m^3; Ultimate Strength ([6]; 10 mg/kg/d): 18.12 N/mm^2; ORX-induced decreases in bone strength, compression test of the vertebral body ([6]; week 12, Toremifene at the 10 mg/kg/d dose): may have worsened the changes
C[C@]12CC[C@@H]3c4ccc(O)cc4CC[C@H]3[C@@H]1CC[C@@H]2O [17-β-Estradiol]	fully prevent this cancellous bone loss	15.95	11.01	690.74	7.17	1.52	210.28	statistically significant improvements in these parameter values	753.44	58.28	613.61	4842.67	0.98	31.23	19.75	reversed OC levels to slightly below that of Sham group	Neither E nor Tor had any effect on CTX	reduced the CTX levels	CTX levels did not change further	prevented loss of bone strength due to ORX	Elastic Modulus ([6]; 0.2 mg/kg/d): 589.03 MPa; Energy ([6]; 0.2 mg/kg/d): 43.60 mJ; Maximum Load ([6]; 0.2 mg/kg/d): 298.04 N; Stiffness ([6]; 0.2 mg/kg/d): 1648.17 N/mm; Toughness ([6]; 0.2 mg/kg/d): 0.94 MJ/m^3; Ultimate Strength ([6]; 0.2 mg/kg/d): 25.75 N/mm^2
